Counter-ions that a name gives are not always drawn.
Key:
[1] = molecular target: T1, Recombinant truncated stromelysin (human sequence) (Homo sapiens, UniProt P08254); assay: Determination of Stromelysin Inhibition; type: biochemical; settings: cleavage of thiopeptide ester substrate Ac-Pro-Leu-Gly-[2-mercapto-4-methyl-pentanoyl]-Leu-Gly-OEt, DTNB read at 405 nm, 30 minute assay at ambient temperature, 50 mM MES/NaOH 6.5
T1 construct: made in house; host or cells: E. coli
Protocol: The efficacy of the compounds of this invention as matrix metalloproteinase inhibitors was determined by measuring the inhibition of stromelysin. The inhibition of stromelysin by the compounds of this invention was determined as follows: Recombinant truncated stromelysin (human sequence) produced in E. coli was prepared by expression and purification of the protein as described by Ye et al. (Biochemistry, 1992, 31, 11231-11235, which is incorporated herein by reference). The enzyme was assayed by its cleavage of the thiopeptide ester substrate Ac-Pro-Leu-Gly-[2-mercapto-4-methyl-pentanoyl]-Leu-Gly-OEt as described by Weingarten and Feder (Anal. Biochem., 1985, 147, 437-440 (1985), which is incorporated herein by reference) as a substrate of vertebrate collagenase. The reported conditions were modified to allow assays to be carried out in a microtiter plate. Upon hydrolysis of the thioester bond, the released thiol group reacted rapidly with 5,5′-dithio-bis(2-nitrobenzoic acid) (DTNB) to produce a yellow color which was measured by a microtiter plate reader set at 405 nm. The rates of cleavage of the substrate by stromelysin in the presence or absence of inhibitors were measured in a 30 minute assay at ambient temperature. Solutions of the compounds in DMSO were prepared, and these were diluted at various concentrations into the assay buffer (50 mM MES/NaOH 6.5 with 10 mM CaCl2 and 0.2% Pluronic F-68), which was also used for dilution of the enzyme and substrate. The potency of the compounds [IC50] was calculated from the inhibition/inhibitor concentration data.

T1 sequence (P08254 100-272 limits assumed): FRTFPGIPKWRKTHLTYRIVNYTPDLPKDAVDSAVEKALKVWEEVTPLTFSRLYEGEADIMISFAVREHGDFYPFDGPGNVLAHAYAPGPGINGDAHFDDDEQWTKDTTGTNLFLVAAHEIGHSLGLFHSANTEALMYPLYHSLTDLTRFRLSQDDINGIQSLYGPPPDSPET

Row | Structure (SMILES) | IC50 [1] | melting point
1 | CN1C(=O)N(CCC(COc2ccc(-c3ccc(C#N)cc3)cc2)N(O)C=O)C(=O)C1(C)C (racemic) [Example 5, (±)-N-[1-[[(4′-cyano-[1,1′-biphenyl]-4-yl)oxy]methyl]-3-(3,4,4-trimethyl-2,5-dioxoimidazolidiny-1-yl)propyl]-N-hydroxyformamide] | 17 nM | 68 to 70 °C
2 | CC(C)CC(COc1ccc(-c2ccc(C#N)cc2)cc1)N(O)C=O (racemic) [Example 7, (±)-N-[1-[[(4′-cyano-[1,1′-biphenyl]-4-yl)oxy]methyl]-3-methylbutyl]-N-hydroxyformamide] | 120 nM | 112 to 113 °C
3 | CC1(C)NC(=O)N(CC(CS(=O)(=O)c2ccc(-c3ccc(OC(F)(F)F)cc3)cc2)N(O)C=O)C1=O (stereo not drawn) [Example 115, N-[1-[[[4′-(trifluoromethoxy)[1,1′-biphenyl]-4-yl]sulfonyl]methyl]-2-(4,4-dimethyl-2,5-dioxo-1-imidazolidinyl)ethyl]-N-hydroxyformamide] | – | 195 to 197 °C
4 | O=CN(O)C(CO)CS(=O)(=O)c1ccc(-c2ccc(Cl)cc2)cc1 (racemic) [Example 152, (±)-N-hydroxy-N-[1-(hydroxymethyl)-2-[(4′chloro[1,1′-biphenyl]-4-yl)sulfonyl]ethyl]formamide] | – | 153 to 154 °C
5 | N#Cc1ccc(-c2ccc(OCC(CN3C(=O)c4ccccc4C3=O)N(O)C=O)cc2)cc1 (racemic) [Example 3, (±)-N-[1-[[(4′-cyano-[1,1′-biphenyl]-4-yl)oxy]methyl]-2-(2,3-dihydro-1,3-dioxo-1H-isoindol-2-yl)ethyl]-N-hydroxyformamide] | – | 199 to 202 °C
6 | CC1(C)NC(=O)N(CCC(COc2ccc(-c3ccc(C#N)cc3)cc2)N(O)C=O)C1=O (stereo not drawn) [Example 47, N-[1-[[(4′-cyano[1,1′-biphenyl]-4-yl)oxy]methyl]-3-(4,4-dimethyl-2,5-dioxo-1-imidazolidinyl)propyl]-N-hydroxyformamide] | – | 202 to 204 °C
7 | CC1(C)CC(=O)N(CC(COc2ccc(-c3ccc(C#N)cc3)cc2)N(O)C=O)C(=O)C1 (stereo not drawn) (as salt: potassium) [Example 50, N-[1-[[(4′-cyano[1,1′-biphenyl]-4-yl)oxy]methyl]-2-(4,4-dimethyl-2,6-dioxo-1-piperidinyl)ethyl]-N-hydroxyformamide] | – | 121 °C
8 | CN1C(=O)N(CC(CS(=O)(=O)c2ccc(Oc3ccc(C(F)(F)F)cc3)cc2)N(O)C=O)C(=O)C1(C)C (racemic) [Example 153, (±)-N-[1-[(2,5-dioxo-3,4,4-trimethyl-1-imidazolidinyl)methyl]-2-[[4-[4-(trifluoromethyl)phenoxy]phenyl]sulfonyl]ethyl]-N-hydroxyformamide] | – | 141 to 143 °C
9 | N#Cc1ccc(-c2ccc(OCC(c3ccc(F)cc3)N(O)C=O)cc2)cc1 (racemic) [Example 11, (±)-N-[2-[(4′-cyano-[1,1′-biphenyl]-4-yl)oxy]-1-(4-fluorophenyl)ethyl]-N-hydroxyformamide] | – | 194 to 196 °C

Continued, values first:

Row | IC50 [1] | melting point | Structure (SMILES)
10 | 9.1 nM | 65 to 67 °C | CN1C(=O)N(CC(COc2ccc(-c3ccc(C#N)cc3)cc2)N(O)C=O)C(=O)C1(C)C (racemic) [Example 4, (±)-N-[1-[[(4′-cyano-[1,1′-biphenyl]-4-yl)oxy]methyl]-2-(3,4,4-trimethyl-2,5-dioxoimidazolidin-1-yl)ethyl]-N-hydroxyformamide]
11 | – | 168.5 to 168.9 °C | O=CN(O)C(CS(=O)(=O)c1ccc(-c2ccc(C(F)(F)F)cc2)cc1)c1ccccn1 (racemic) [Example 123, (±)-N-hydroxy-N-[1-(2-pyridinyl)-2-[[4′-(trifluoromethyl) [1,1′-biphenyl]-4-yl]sulfonyl]ethyl]formamide]
12 | – | 116.4 to 117.6 °C | O=CN(O)C(CS(=O)(=O)c1ccc(-c2ccc(OC(F)(F)F)cc2)cc1)c1ccccn1 (racemic) [Example 186, (±)-N-hydroxy-N-[1-(2-pyridinyl)-2-[[4′-(trifluoromethoxy)[1,1′-biphenyl]-4-yl]sulfonyl]ethyl]formamide]
13 | – | 200 to 201 °C | CC(CS(=O)(=O)c1ccc(-c2ccc3c(c2)OCO3)cc1)N(O)C=O (stereo not drawn) [Example 73, N-[1-[[[4-(1,3-benzodioxol-5-yl)phenyl]sulfonyl]methyl]ethyl]-N-hydroxyformamide]
14 | – | 173 to 175 °C | Cc1ccc(CC(COc2ccc(-c3ccc(C#N)cc3)cc2)N(O)C=O)cc1 (racemic) [Example 10, (±)-N-[1-[[(4′-cyano-[1,1′-biphenyl]-4-yl)oxy]methyl]-2-(4-methylphenyl)ethyl]-N-hydroxyformamide]
15 | – | 186.5 to 188.8 °C | O=CN(O)C(CCO)CS(=O)(=O)c1ccc(-c2ccc(C(F)(F)F)cc2)cc1 (racemic) [Example 125, (±)-N-hydroxy-N-[3-hydroxy-1-[[[4′-(trifluoromethyl)[1,1′-biphenyl]-4-yl]sulfonyl]methyl]propyl]formamide]
